Read-outs that look alike come from different tables or passages of the source.
Tests used:
[1] = Hygroscopicity: crystal forms exposed to different levels of humidity for one week, then analysed by TGA and XRD; format: physicochemical; conditions: for LOD(%): one week, TGA
Description: The hygroscopicity of monosodium mycophenolate crystal forms M1, M2, M3 and disodium mycophenolate crystal forms D1 and D1±D2 were also investigated. Form M1, M2, M3, D1 and D1±D2 were exposed to different level of humidity for one week and after equilibrium they were analysed by TGA and XRD for water content and crystal structure. Table 5 summarizes the results:
(§1) ARL X-ray powder diffractometer model X′TRA-030, Peltier detector, round standard aluminum sample holder with round zero background quartz plate was used. Scanning parameters: Range: 2-40 deg. 2 θ, continuous Scan, Rate: 3 deg./min. The accuracy of peak positions is defined as ±/−0.2 degrees due to experimental differences like instrumentations, sample preparations etc.
• TGA/SDTA 851^e, Mettler Toledo, Sample weight 7-15 mg. • Heating rate: 10° C./min., In N2 stream: flow rate=50 ml/min • Scan range: 30-250° C. Microscope
200 mg of each of the following samples: crystal Form M2, crystal Form M3 and crystal Form D1 were put at room temperature into a hygroscopicity chamber containing 100% relative humidity for one week. After one week they were measured again by XRD to determine their crystal forms.

[2] = Crystal form transformation by heating in an oven at atmospheric pressure, XRD before and after; format: physicochemical; conditions: for Crystal form after heating (XRD): 30 min., atmospheric pressure
Description: Representatives of all monosodium and disodium mycophenolate crystal forms, M1, M2, M1±M3, D1 and D1±D2 were heated in an oven at atmospheric pressure at 130° C. and 170° C. for 30 minutes. The samples were analyzed by XRD before and after heating.
as §1
200 mg of a mixture of Forms M1±M3 as identified by XRD, was put into an oven in a glass weighing bottle at 170° C. for 0.5 h. Then it was put into a desiccator and allowed to cool to room temperature. […] Transformation of M2 to M1, M3 to M1 and D1 to D2 by water vapors absorption

With `COc1c(C)c2c(c([O-])c1C/C=C(\C)CCC(=O)[O-])C(=O)OC2.[Na+].[Na+]` [D1 + D2, disodium mycophenolate] the “LOD(%)” value ([1]; 20% RH) was 10.2%, the “LOD(%)” value ([1]; 40% RH) was 10.3% and the “LOD(%)” value ([1]; 80% RH) was 16.9%. The “LOD(%)” value ([1]; 100% RH) was 42.1%.

In the case of `COc1c(C)c2c(c([O-])c1C/C=C(\C)CCC(=O)[O-])C(=O)OC2.[Na+].[Na+]` [Form D1, disodium mycophenolate], the “LOD(%)” value ([1]; 40% RH, listed as D1) is reported as 2.17%, the “LOD(%)” value ([1]; 60% RH) is reported as 11.64% and the “LOD(%)” value ([1]; 80% RH, listed as D1) is reported as 17.20%. The “LOD(%)” value ([1]; 100% RH, listed as D1) was 31.87% and the “relative stability of the form at high temperature” value [2] was “the most stable forms at high temperature”.

In the case of `COc1c(C)c2c(c([O-])c1C/C=C(\C)CCC(=O)[O-])C(=O)OC2.[Na+].[Na+]` [Form D2, disodium mycophenolate], the “relative stability of the form at high relative humidity” value ([1]; room temperature, high relative humidity) is reported as “the most stable form at room temperature, at high relative humidity”.

With `COc1c(C)c2c(c(O)c1C/C=C(\C)CCC(=O)O)C(=O)OC2` [Form M1, mycophenolate sodium] the “relative stability of the form at high relative humidity” value [1] was “the most stable form at room temperature, at high relative humidity”.

With `COc1c(C)c2c(c(O)c1C/C=C(\C)CCC(=O)O)C(=O)OC2` [Form M2, mycophenolate sodium] the “relative stability of the form at high temperature” value ([2]; heating at 130° C. and 170° C.) was “the most stable forms at high temperature”.

With `COc1c(C)c2c(c(O)c1C/C=C(\C)CCC(=O)[O-])C(=O)OC2.[Na+]` [M1 + M3, mycophenolate sodium] the “Crystal form after heating (XRD)” value ([2]; 130° C.) was “M3 > Ml” and the “Crystal form after heating (XRD)” value ([2]; 170° C.) was “Form M2”.

For `COc1c(C)c2c(c([O-])c1C/C=C(\C)CCC(=O)[O-])C(=O)OC2.[Na+].[Na+]` [disodium mycophenolate], the equilibrium water content ([1]; after humidity exposure) was “about 17%”.

Source: patent US20060069152A1, “Crystalline mycophenolate sodium” (priority 2004, published 2006)
